The target in one data set is SARS-CoV-2 M^pro (Severe acute respiratory syndrome coronavirus 2 (2019-nCoV) (SARS-CoV-2), UniProt P0DTD1). The data set can be described thus: biochemical.
Data set [1] deals with T1, Mpro (Severe acute respiratory syndrome coronavirus 2 (2019-nCoV) (SARS-CoV-2), UniProt P0DTD1). Description: Label free mass spectrometry assay of Mpro substrate cleavage. It counts as biochemical. Particulars: 50 μM concentration.
Data set [2] deals with T1, Mpro. It counts as biochemical. Particulars: jump dilution.
The subject of data set [3] is SARS-CoV-2. Description: Vero E6-based SARS-CoV-2 replication assay (immunofluorescence of nucleocapsid protein). Particulars: Vero E6 cells. It counts as cell-based.
Data set [4] relates to SARS-CoV-2. The following applies: human ACE2 transgenic mouse, 50-200 mg/kg, crystal form; cited from earlier work.
Data set [5] concerns Vero E6 cells. Description: Toxicity in Vero E6 cells / cell culture.
In data set [6] the test system is Vero E6 cells.
The mark [7] stands for this setting: compound at 17 μM, duplicates, 20 min pre-incubation, read-out: Activity (% enzyme activity by fluorescence relative to initial enzyme activity).
Where [8] appears, read: read-out: Activity (% enzyme activity by fluorescence relative to initial enzyme activity), compound at 17 μM, duplicates, 20 min pre-incubation.
The mark [9] stands for this setting: compounds evaluated at 0.015-300 μM, read-out: IC50.

These results are taken from patent US20240016777A1, “COMPOUNDS AND METHODS FOR TREATING VIRAL INFECTIONS” (priority 2020, published 2024).

The structures appear in SMILES notation. Like-named read-outs stand apart in the source and are kept apart here.

As usually defined, the IC50 is the concentration at which inhibition is half-maximal.

For the compound `O=c1c(-c2c(O)cc(O)c3c(=O)cc(-c4ccc(O)cc4)oc23)c(-c2ccc(O)cc2)oc2cc(O)cc(O)c12` [3,8′-Biapigenin], on SARS-CoV-2 M^pro (IC50 for inhibition of Mpro), the IC50 lay in the range of 5 to 15 µM. Besides, on Mpro [1], the “Inhibition of Mpro activity (mass spectrometry)” value (from here on “Inhibition of Mpro activity”) is on record as “completely inhibited”.
Turning to `O=c1cc(-c2ccc(O)c(-c3c(O)cc(O)c4c(=O)cc(-c5ccc(O)cc5)oc34)c2)oc2cc(O)cc(O)c12` [Amentoflavone], the IC50 was 8 µM against SARS-CoV-2 M^pro (IC50, compounds evaluated at 0.015-300 μM) and 5 to 15 µM against SARS-CoV-2 M^pro (IC50 for inhibition of Mpro). On SARS-CoV-2 M^pro (setting [7]), the remaining activity at 17 µM fell in the range of 10 to 80%. Further, the “Reversibility of Mpro inhibition by dilution” value on Mpro [2] is recorded as “completely reversible”. Moreover, the “Inhibition of Mpro activity” value on Mpro [1] is given as “completely inhibited”.
Turning to `O=c1cc(-c2ccccc2)oc2cc(O)c(O)c(O)c12` [Baicalein], the “Inhibition of SARS-CoV-2 replication (in words)” value (“Inhibition … (in words)” below) in the data set on SARS-CoV-2 [3] is listed as “antiviral activity”. Also, in the data set on SARS-CoV-2 [4], the “Body weight after SARS-CoV-2 infection” value was “prevented reduction in body weight” and the “Lung injury resulting from SARS-CoV-2 infection” value is reported as “decreased lung injury”.
Take `COc1cc(-c2oc3cc(OC(C)=O)c(OC)c(OC(C)=O)c3c(=O)c2OC)ccc1OC(C)=O` [Jaceidin triacetate]: the Toxicity in cells result in the data set with Vero E6 cells [5] is given as “toxic”. Moreover, the “Mpro inhibitory activity (comparison in words)” value (shortened to “Mpro inhibitory activity”) at SARS-CoV-2 M^pro is “comparable to or better than the previously described Mpro inhibitors baicalein and myricetin”. At SARS-CoV-2 M^pro (setting [7]), the remaining activity at 17 µM is less than 10%. For the same compound, the IC50 at SARS-CoV-2 M^pro (read-out: IC50 for inhibition of Mpro) was in the range of 5 to 15 µM. Further, at Mpro [1], the “Inhibition of Mpro activity” value is on record as “completely inhibited”.
On to `O=c1cc(-c2ccc(O)cc2)oc2cc(O)cc(O)c12` [apigenin], for which the Toxicity in cells result with Vero E6 cells [6] is given as “some toxicity”. In addition, at SARS-CoV-2 M^pro, the “Mpro inhibitory activity” value is “somewhat less potent”. The IC50 against SARS-CoV-2 M^pro (IC50 for inhibition of Mpro) is 17.4 µM. In addition, the “Inhibition … (in words)” value in the data set on SARS-CoV-2 [3] is listed as “inhibits viral replication at concentrations at doses that are not toxic”. The “Inhibition of SARS-CoV-2 replication at 50 μM” value in the data set on SARS-CoV-2 [3] (50 μM) is given as “somewhat better than baicalein”. Moreover, the “Reversibility of Mpro inhibition by dilution” value on Mpro [2] is “completely reversible”.
In the case of `COc1ccc(-c2cc(=O)c3c(O)cc(O)cc3o2)cc1-c1c(O)cc(O)c2c(=O)cc(-c3ccc(O)cc3)oc12` [bilobetin], the “Mpro inhibitory activity” value at SARS-CoV-2 M^pro was “comparable to amentoflavone”.
As to `COc1c(-c2ccc(O)c(O)c2)oc2c(CC=C(C)C)c(O)c(CC=C(C)C)c(O)c2c1=O` [broussoflavonol B], at SARS-CoV-2 M^pro (setting [8]), the remaining activity at 17 µM was greater than 80%.
Same read-out and setting: the value for `CC(C)=CCc1cc(-c2oc3cc(O)c(CC=C(C)C)c(O)c3c(=O)c2O)cc(O)c1O` [broussonol E] was greater than 80%.
On to `CC(C)=CCc1cc([C@H]2Oc3cc(O)cc(O)c3C(=O)[C@@H]2O)c(O)c(CC=C(C)C)c1O` [cathayanon I], for which the remaining activity at 17 µM at SARS-CoV-2 M^pro (setting [8]) lay in the range of 10 to 80%.
Consider `CC(C)=CCc1c2c(c(O)c3c(=O)c(-c4ccc(O)c(O)c4)coc13)CC(C(C)(C)O)O2` (centres unmarked) [furowanin A], for which the remaining activity at 17 µM at SARS-CoV-2 M^pro (setting [7]) was 10 to 80%. The IC50 on SARS-CoV-2 M^pro (setting [9]) is 7 µM.
For the compound `CC(C)=CCc1cc(-c2coc3cc(O)cc(O)c3c2=O)cc(O)c1O` [glycyrrhisoflavone], the remaining activity at 17 µM on SARS-CoV-2 M^pro (setting [7]) was greater than 80%.
On to `C=C(C)[C@H](CC=C(C)C)Cc1c(O)c(CC=C(C)C)c(O)c2c1O[C@H](c1ccc(O)cc1O)[C@@H](O)C2=O` [kushenol M], for which the remaining activity at 17 µM on SARS-CoV-2 M^pro (setting [8]) was greater than 80%.
The same measure, in the same setting: next, `CC(C)=CCC/C(C)=C/Cc1cc(C2CC(=O)c3c(O)cc(O)cc3O2)c(O)cc1O` (centres unmarked) [kuwanon E]: 10 to 80%; `C=C(C)C(O)Cc1c(O)c(CC=C(C)C)c2occ(-c3ccc(O)c(O)c3)c(=O)c2c1O` (centres unmarked) [millewanin G]: greater than 80%; `C=C(C)C(O)Cc1c(O)c(CC=C(C)C)c(O)c2c(=O)c(-c3ccc(O)c(O)c3)coc12` (centres unmarked) [millewanin H]: 10 to 80%.
With `O=c1c(O)c(-c2ccc(O)cc2O)oc2cc(O)cc(O)c12` [morin], the remaining activity at 17 µM on SARS-CoV-2 M^pro (setting [7]) was greater than 80%.
Consider `O=c1c(O)c(-c2cc(O)c(O)c(O)c2)oc2cc(O)cc(O)c12` [myricetin, reference compound], for which the “Inhibition … (in words)” value was “somewhat less potently than PGHG, baicalein, or apigenin” with SARS-CoV-2 [3] and “inhibitory activity only at 100 μM” in the data set with SARS-CoV-2 [3] (listed as Myricetin). The “Reversibility of Mpro inhibition by dilution” value on Mpro [2] is “resistant to dilution”.
In the case of `CC(C)=CCc1c(O)cc(O)c2c1O[C@H](c1ccc(O)cc1)[C@@H](O)C2=O` [neophellamuretin], the remaining activity at 17 µM on SARS-CoV-2 M^pro (setting [8]) is greater than 80%.
On the same count and under the same terms, the value for `CC(C)=CCC/C(C)=C/Cc1c(O)ccc(C2CC(=O)c3c(O)cc(O)cc3O2)c1O` (centres unmarked) [sanggenol A] was 10 to 80%.
As to `CC(C)=CCC/C(C)=C\Cc1c(O)cc(O)c2c1O[C@H](c1ccc(O)cc1O)CC2=O` [sophoraflavanone C], the remaining activity at 17 µM on SARS-CoV-2 M^pro (setting [7]) lay within 10 to 80%. The IC50 on SARS-CoV-2 M^pro (setting [9]) was determined as 63 µM.
On to `CC(C)=CCc1c2c(c(O)c3c(=O)c(-c4ccc(O)cc4)coc13)C=CC(C)(C)O2` [warangalone], for which, at SARS-CoV-2 M^pro (setting [8]), the remaining activity at 17 µM was in the range of 10 to 80%.
